Source: patent US20240082223A1, “DIHYDROFUROPYRIDINE DERIVATIVES AS RHO- KINASE INHIBITORS” (CHIESI FARMACEUTICI S.P.A., priority 2020, published 2024)

Experiments:
Type in all cases: biochemical
PKA = PKA (Homo sapiens, UniProt P17612); assay: In vitro inhibitory activity assay for PKA (ADP-Glo), reported as selectivity ratio vs ROCK2; settings: Ki PKA divided by Ki ROCK2 (method B)
Description: In vitro inhibitory activity assay description for PKA
The effectiveness of compounds of the present invention to inhibit PKA activity can be determined in a […], assay containing 40 mM Tris pH7.5, 20 mM MgCl2 0.1 mg/mL BSA, 50 μM DTT and 260 μM peptide substrate (kemptide) using an ADP-Glo kit (Promega). Compounds were dissolved in DMSO such that the final concentration of DMSO was 1% in the assay. All reactions/incubations are performed at 25° C. Compound and PKA enzyme (6 μl) were mixed and incubated for 30 min. Reactions were initiated by addition of ATP (4 μL) such that the final concentration of ATP in the assay was 10 μM. After a 30 minute incubation 10 μL of ADP-Glo Reagent was added and after a further 1 hour incubation 20 μL of Kinase Detection Buffer was added and the mixture incubated for a further 45 minutes. The luminescent signal was measured on a luminometer. […] Compounds were tested in dose-response format and the inhibition of kinase activity was calculated at each concentration of compound. To determine the IC50 (concentration of compound required to inhibit 50% of the enzyme activity) data were fit to a plot of % inhibition vs Log10 compound concentration using a sigmoidal fit with a variable slope and fixing the maximum to 100% and the minimum to 0%. To determine the Ki values the Cheng-Prusoff equation was utilized (Ki=IC50/(1+[S]/Km).
In vitro inhibitory activities for PKA were reported as selectivity ratio vs. ROCK2. Selectivity ratio PKA/ROCK2 was calculated by dividing the Ki value for PKA by Ki value of ROCK2 (method B) and reported into table 1.

ROCK1 [1] = molecular target: T1, ROCK1 (Homo sapiens, UniProt Q13464); assay: In vitro inhibitory activity assay ROCK1 (Method B, ADP-Glo, 200 μM ATP); settings: ATP 200 μM, read-out: Method B ROCK 1 (Ki)
Description: (§1) In Vitro Inhibitory Activity Assay Description ROCK1 and ROCK2
(§2) The effectiveness of compounds of the present invention to inhibit Rho kinase activity can be determined in a 10 μl assay containing 40 mM Tris pH7.5, 20 mM MgCl2 0.1 mg/mL BSA, 50 μM DTT and 2.5 μM peptide substrate (Myelin Basic Protein) using an ADP-Glo kit (Promega). Compounds were dissolved in DMSO such that the final concentration of DMSO was 1% in the assay. All reactions/incubations are performed at 25° C. Compound (2 μL) and either Rho kinase 1 or 2 (4 μl) were mixed and incubated for 30 min. Reactions were initiated by addition of ATP (4 μL) such that the final concentration of ATP in the assay was 200 μM. After a 1 hour incubation 10111 of ADP-Glo Reagent was added and after a further 45 minute incubation 20 μL of Kinase Detection Buffer was added and the mixture incubated for a further 30 minutes. The luminescent signal was measured on a luminometer. […] Compounds were tested in dose-response format and the inhibition of kinase activity was calculated at each concentration of compound. To determine the IC50 (concentration of compound required to inhibit 50% of the enzyme activity) data were fit to a plot of % inhibition vs Log10 compound concentration using a sigmoidal fit with a variable slope and fixing the maximum to 100% and the minimum to 0%. To determine the Ki values the Cheng-Prusoff equation was utilized (Ki=IC50/(1[S]/Km).

ROCK2 [2] = molecular target: T2, ROCK2 (Homo sapiens, UniProt O75116); assay: In vitro inhibitory activity assay ROCK2 (Method B, ADP-Glo, 200 μM ATP); settings: ATP 200 μM, read-out: Method B ROCK 2 (Ki)
Description: as §1, §2

ROCK2 [3] = molecular target: T2, ROCK2; assay: In vitro inhibitory activity assay ROCK2 (Method A, ADP-Glo, 10 μM ATP); settings: ATP 10 μM, read-out: Method A ROCK 2 (Ki)
Description: (§3) In vitro inhibitory activity assay description ROCK1 and ROCK2
as §2, with “(2 uL)” for “(2 μL)”, “was 10” for “was 200”, “incubation […]” for “incubation 10111”, “45 minutes” for “45 minute”, “20 uL” for “20 μL”, “utilized (Ki=IC50/(1+[S]/Km).” for “utilized (Ki=IC50/(1[S]/Km).”

ROCK1 [4] = molecular target: T1, ROCK1; assay: In vitro inhibitory activity assay ROCK1 (Method A, ADP-Glo, 10 μM ATP); settings: ATP 10 μM, read-out: Method A ROCK 1 (Ki)
Description: as §3
as §2, with “(2 uL)” for “(2 μL)”, “was 10” for “was 200”, “incubation […]” for “incubation 10111”, “45 minutes” for “45 minute”, “20 uL” for “20 μL”, “utilized (Ki=IC50/(1+[S]/Km).” for “utilized (Ki=IC50/(1[S]/Km).”

T2 sequence (O75116 whole entry): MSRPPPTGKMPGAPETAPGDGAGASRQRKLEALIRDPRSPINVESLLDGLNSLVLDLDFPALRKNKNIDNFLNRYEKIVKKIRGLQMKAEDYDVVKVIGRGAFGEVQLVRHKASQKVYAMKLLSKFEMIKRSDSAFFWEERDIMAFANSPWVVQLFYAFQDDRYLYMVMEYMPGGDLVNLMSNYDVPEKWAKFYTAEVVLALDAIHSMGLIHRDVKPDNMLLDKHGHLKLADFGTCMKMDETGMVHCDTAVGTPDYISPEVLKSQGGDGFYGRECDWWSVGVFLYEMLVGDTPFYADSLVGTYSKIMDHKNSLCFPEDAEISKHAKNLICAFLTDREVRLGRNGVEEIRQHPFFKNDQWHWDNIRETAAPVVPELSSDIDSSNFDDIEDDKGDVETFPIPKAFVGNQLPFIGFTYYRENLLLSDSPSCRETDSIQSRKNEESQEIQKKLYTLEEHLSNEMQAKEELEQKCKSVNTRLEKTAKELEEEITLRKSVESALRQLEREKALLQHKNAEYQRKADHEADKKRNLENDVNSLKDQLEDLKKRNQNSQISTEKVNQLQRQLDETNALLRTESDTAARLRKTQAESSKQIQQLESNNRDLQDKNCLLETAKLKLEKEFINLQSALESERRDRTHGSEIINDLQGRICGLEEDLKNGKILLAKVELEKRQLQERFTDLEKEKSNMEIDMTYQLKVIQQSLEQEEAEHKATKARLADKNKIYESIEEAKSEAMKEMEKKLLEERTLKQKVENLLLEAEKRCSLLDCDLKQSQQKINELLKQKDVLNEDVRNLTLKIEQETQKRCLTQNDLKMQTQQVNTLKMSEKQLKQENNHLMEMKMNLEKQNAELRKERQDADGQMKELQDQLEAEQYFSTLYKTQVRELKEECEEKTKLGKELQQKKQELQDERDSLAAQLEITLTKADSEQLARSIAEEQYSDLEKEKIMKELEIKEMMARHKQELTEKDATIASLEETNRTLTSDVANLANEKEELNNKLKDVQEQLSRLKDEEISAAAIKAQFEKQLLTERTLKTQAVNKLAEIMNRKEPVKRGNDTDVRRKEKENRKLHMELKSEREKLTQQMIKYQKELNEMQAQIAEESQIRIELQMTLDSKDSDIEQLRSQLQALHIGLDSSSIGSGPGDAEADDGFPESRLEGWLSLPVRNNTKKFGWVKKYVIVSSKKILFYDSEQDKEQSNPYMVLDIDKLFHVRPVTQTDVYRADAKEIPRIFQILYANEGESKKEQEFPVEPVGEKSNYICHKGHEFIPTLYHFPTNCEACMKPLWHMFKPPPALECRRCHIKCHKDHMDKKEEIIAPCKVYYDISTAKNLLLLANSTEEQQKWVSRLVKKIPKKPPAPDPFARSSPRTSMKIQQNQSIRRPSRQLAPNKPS
T1 sequence (Q13464 whole entry): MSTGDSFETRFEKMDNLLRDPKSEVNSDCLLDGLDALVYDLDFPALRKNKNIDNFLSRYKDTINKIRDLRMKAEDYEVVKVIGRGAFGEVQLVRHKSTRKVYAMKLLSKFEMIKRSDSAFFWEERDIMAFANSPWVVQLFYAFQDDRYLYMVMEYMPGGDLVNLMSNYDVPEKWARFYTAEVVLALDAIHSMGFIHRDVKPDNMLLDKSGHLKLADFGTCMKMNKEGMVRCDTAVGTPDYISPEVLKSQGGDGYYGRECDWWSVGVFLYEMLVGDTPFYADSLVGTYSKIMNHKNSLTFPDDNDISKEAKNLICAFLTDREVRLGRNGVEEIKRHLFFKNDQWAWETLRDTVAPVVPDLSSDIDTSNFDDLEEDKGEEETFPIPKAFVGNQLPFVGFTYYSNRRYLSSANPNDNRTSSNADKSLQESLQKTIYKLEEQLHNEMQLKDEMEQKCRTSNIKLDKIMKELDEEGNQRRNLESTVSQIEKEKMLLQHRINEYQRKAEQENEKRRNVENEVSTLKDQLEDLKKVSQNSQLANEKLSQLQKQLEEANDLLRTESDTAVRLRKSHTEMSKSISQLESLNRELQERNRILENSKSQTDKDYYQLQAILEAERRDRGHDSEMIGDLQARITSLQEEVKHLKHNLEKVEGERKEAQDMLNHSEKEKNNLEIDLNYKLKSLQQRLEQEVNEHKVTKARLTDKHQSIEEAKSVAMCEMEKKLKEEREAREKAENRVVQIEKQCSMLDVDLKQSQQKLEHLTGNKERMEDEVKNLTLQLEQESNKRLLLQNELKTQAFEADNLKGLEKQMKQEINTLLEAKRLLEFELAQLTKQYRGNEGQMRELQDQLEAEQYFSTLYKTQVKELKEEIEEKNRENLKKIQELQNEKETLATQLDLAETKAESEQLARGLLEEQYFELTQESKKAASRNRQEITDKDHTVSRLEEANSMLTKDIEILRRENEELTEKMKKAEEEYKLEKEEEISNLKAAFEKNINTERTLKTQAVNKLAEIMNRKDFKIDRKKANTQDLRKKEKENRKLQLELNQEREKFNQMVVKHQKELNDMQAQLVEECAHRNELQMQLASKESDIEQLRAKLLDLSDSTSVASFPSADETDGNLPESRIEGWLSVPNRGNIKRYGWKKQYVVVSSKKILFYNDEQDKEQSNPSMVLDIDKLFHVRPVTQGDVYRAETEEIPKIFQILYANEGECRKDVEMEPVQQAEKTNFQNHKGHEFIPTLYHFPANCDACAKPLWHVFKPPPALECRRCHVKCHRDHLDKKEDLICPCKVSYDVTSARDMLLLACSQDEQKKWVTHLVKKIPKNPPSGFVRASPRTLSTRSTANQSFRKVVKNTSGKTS

O=C(NCC1CCCCO1)c1cccc(CNc2ncc(-c3cn[nH]c3)c3c2CCO3)c1 (racemic) [Example 11, 3-(((7-(1H-pyrazol-4-yl)-2,3-dihydrofuro[3,2-c]pyridin-4-yl)amino)methyl)-N-((tetrahydro-2H-pyran-2-yl)methyl)benzamide]
Ratio Ki PKA/ROCK2 (PKA): *** (ratio≥10) | Ki (ROCK1 [1]): ≤ 3 nM | Ki (ROCK2 [2]): ≤ 3 nM

O=C(NCC1CCCCO1)c1cccc(CNc2ncc(-c3cn[nH]c3)c3c2CCO3)c1 (single isomer, unassigned; enantiomer 1) [Example 55, 3-(((7-(1H-pyrazol-4-yl)-2,3-dihydrofuro[3,2-c]pyridin-4-yl)amino)methyl)-N-((tetrahydro-2H-pyran-2-yl)methyl)benzamide (Enantiomer 1)]
Ratio Ki PKA/ROCK2 (PKA): *** (ratio≥10) | Ki (ROCK1 [1]): ≤ 3 nM | Ki (ROCK2 [2]): ≤ 3 nM

O=C(NCC1CCCCO1)c1cccc(CNc2ncc(-c3cn[nH]c3)c3c2CCO3)c1 (single isomer, unassigned; enantiomer 2) [Example 56, 3-(((7-(1H-pyrazol-4-yl)-2,3-dihydrofuro[3,2-c]pyridin-4-yl)amino)methyl)-N-((tetrahydro-2H-pyran-2-yl)methyl)benzamide (Enantiomer 2)]
Ratio Ki PKA/ROCK2 (PKA): *** (ratio≥10) | Ki (ROCK1 [1]): ≤ 3 nM | Ki (ROCK2 [2]): ≤ 3 nM

O=C(NC1CCN(C2CC2)CC1)c1cccc(CNc2ncc(-c3cn[nH]c3)c3c2CCO3)c1 [Example 1, 3-(((7-(1H-Pyrazol-4-yl)-2,3-dihydrofuro[3,2-c]pyridin-4-yl)amino)methyl)-N-(1-cyclopropylpiperidin-4-yl)benzamide]
Ratio Ki PKA/ROCK2 (PKA): *** (ratio≥10) | Ki (ROCK1 [1]): ≤ 3 nM | Ki (ROCK2 [2]): ≤ 3 nM

O=C(NCCCF)c1cccc(CNc2ncc(-c3cn[nH]c3)c3c2CCO3)c1 [Example 3, 3-(((7-(1H-pyrazol-4-yl)-2,3-dihydrofuro[3,2-c]pyridin-4-yl)amino)methyl)-N-(3-fluoropropyl)benzamide]
Ratio Ki PKA/ROCK2 (PKA): *** (ratio≥10) | Ki (ROCK1 [1]): 3 to 30 nM | Ki (ROCK2 [2]): 3 to 30 nM

O=C(NCC1CC1)c1cccc(CNc2ncc(-c3cn[nH]c3)c3c2CCO3)c1 [Example 5, 3-(((7-(1H-pyrazol-4-yl)-2,3-dihydrofuro[3,2-c]pyridin-4-yl)amino)methyl)-N-(cyclopropylmethyl)benzamide]
Ratio Ki PKA/ROCK2 (PKA): *** (ratio≥10) | Ki (ROCK1 [1]): 3 to 30 nM | Ki (ROCK2 [2]): 3 to 30 nM

CC1(C)CC(NC(=O)c2cccc(CNc3ncc(-c4cn[nH]c4)c4c3CCO4)c2)CO1 (stereo not shown) [Example 6, 3-(((7-(1H-pyrazol-4-yl)-2,3-dihydrofuro[3,2-c]pyridin-4-yl)amino)methyl)-N-(5,5-dimethyltetrahydrofuran-3-yl)benzamide]
Ratio Ki PKA/ROCK2 (PKA): *** (ratio≥10) | Ki (ROCK1 [1]): 3 to 30 nM | Ki (ROCK2 [2]): 3 to 30 nM

Cn1cnc(CNC(=O)c2cccc(CNc3ncc(-c4cn[nH]c4)c4c3CCO4)c2)c1 [Example 8, 3-(((7-(1H-pyrazol-4-yl)-2,3-dihydrofuro[3,2-c]pyridin-4-yl)amino)methyl)-N-((1-methyl-1H-imidazol-4-yl)methyl)benzamide]
Ratio Ki PKA/ROCK2 (PKA): *** (ratio≥10) | Ki (ROCK1 [1]): 3 to 30 nM | Ki (ROCK2 [2]): ≤ 3 nM

O=C(NCc1cnon1)c1cccc(CNc2ncc(-c3cn[nH]c3)c3c2CCO3)c1 [Example 10, N-((1,2,5-oxadiazol-3-yl)methyl)-3-(((7-(1H-pyrazol-4-yl)-2,3-dihydrofuro[3,2-c]pyridin-4-yl)amino)methyl)benzamide]
Ratio Ki PKA/ROCK2 (PKA): *** (ratio≥10) | Ki (ROCK1 [1]): ≤ 3 nM | Ki (ROCK2 [2]): ≤ 3 nM

O=C(NC1CC(F)(F)C1)c1cccc(CNc2ncc(-c3cn[nH]c3)c3c2CCO3)c1 [Example 12, 3-(((7-(1H-pyrazol-4-yl)-2,3-dihydrofuro[3,2-c]pyridin-4-yl)amino)methyl)-N-(3,3-difluorocyclobutyl)benzamide]
Ratio Ki PKA/ROCK2 (PKA): *** (ratio≥10) | Ki (ROCK1 [1]): 3 to 30 nM | Ki (ROCK2 [2]): 3 to 30 nM

CN1CCn2nc(NC(=O)c3cccc(CNc4ncc(-c5cn[nH]c5)c5c4CCO5)c3)cc2C1 [Example 15, 3-(((7-(1H-pyrazol-4-yl)-2,3-dihydrofuro[3,2-c]pyridin-4-yl)amino)methyl)-N-(5-methyl-4,5,6,7-tetrahydropyrazolo[1,5-a]pyrazin-2-yl)benzamide]
Ratio Ki PKA/ROCK2 (PKA): *** (ratio≥10) | Ki (ROCK2 [3]): ≤ 3 nM | Ki (ROCK1 [4]): ≤ 3 nM | Ki (ROCK1 [1]): ≤ 3 nM | Ki (ROCK2 [2]): ≤ 3 nM

COc1ccc(NC(=O)c2cccc(CNc3ncc(-c4cn[nH]c4)c4c3CCO4)c2)nc1 [Example 31, 3-(((7-(1H-Pyrazol-4-yl)-2,3-dihydrofuro[3,2-c]pyridin-4-yl)amino)methyl)-N-(5-methoxypyridin-2-yl)benzamide]
Ratio Ki PKA/ROCK2 (PKA): *** (ratio≥10) | Ki (ROCK1 [1]): ≤ 3 nM | Ki (ROCK2 [2]): ≤ 3 nM

O=C(Nc1ccncn1)c1cccc(CNc2ncc(-c3cn[nH]c3)c3c2CCO3)c1 [Example 32, 3-(((7-(1H-pyrazol-4-yl)-2,3-dihydrofuro[3,2-c]pyridin-4-yl)amino)methyl)-N-(pyrimidin-4-yl)benzamide]
Ratio Ki PKA/ROCK2 (PKA): *** (ratio≥10) | Ki (ROCK1 [1]): ≤ 3 nM | Ki (ROCK2 [2]): ≤ 3 nM

O=C(Nc1cccc(CNc2ncc(-c3cn[nH]c3)c3c2CCO3)c1)c1ccc2c(cnn2CCN2CCOCC2)c1 [Example 46, N-(3-(((7-(1H-pyrazol-4-yl)-2,3-dihydrofuro[3,2-c]pyridin-4-yl)amino)methyl)phenyl)-1-(2-morpholinoethyl)-1H-indazole-5-carboxamide]
Ki (ROCK2 [3]): ≤ 3 nM | Ki (ROCK1 [4]): ≤ 3 nM | Ki (ROCK1 [1]): ≤ 3 nM | Ki (ROCK2 [2]): ≤ 3 nM

O=C(Nc1cccc(CNc2ncc(-c3cn[nH]c3)c3c2CCO3)c1)c1ncc(CN2CCCC2)s1 [Example 48, N-(3-(((7-(1H-pyrazol-4-yl)-2,3-dihydrofuro[3,2-c]pyridin-4-yl)amino)methyl)phenyl)-5-(pyrrolidin-1-ylmethyl)thiazole-2-carboxamide]
Ki (ROCK2 [3]): ≤ 3 nM | Ki (ROCK1 [4]): ≤ 3 nM | Ki (ROCK1 [1]): ≤ 3 nM | Ki (ROCK2 [2]): ≤ 3 nM

CN(C)CCOc1ccc(NC(=O)c2cccc(CNc3ncc(-c4cn[nH]c4)c4c3CCO4)c2)nc1 [Example 57, 3-(((7-(1H-pyrazol-4-yl)-2,3-dihydrofuro[3,2-c]pyridin-4-yl)amino)methyl)-N-(5-(2-(dimethylamino)ethoxy)pyridin-2-yl)benzamide]
Ratio Ki PKA/ROCK2 (PKA): *** (ratio≥10) | Ki (ROCK1 [1]): ≤ 3 nM | Ki (ROCK2 [2]): ≤ 3 nM

c1ccc(CNc2ncc(-c3cn[nH]c3)c3c2CCO3)cc1 [Example C, N-Benzyl-7-(1H-pyrazol-4-yl)-2,3-dihydrofuro[3,2-c]pyridin-4-amine, reference compound]
Ratio Ki PKA/ROCK2 (PKA): * (ratio≤5) | Ki (ROCK1 [1]): > 30 nM | Ki (ROCK2 [2]): > 30 nM
